Laboratory results published in US8426437B2, “Pyrroloquinoline derivatives and their use as protein kinases inhibitors” (Pierre Fabre Medicament, priority 2005, dated 2013).
Counter-ions that a name gives are not always drawn.

Molecular target: T1, RET (Homo sapiens, UniProt P07949)
T1 construct: purchased Upstate 14-570MG
Assay: Inhibition of RET kinase activity, recombinant RET method (Kinase-Glo)
Format: biochemical
Settings: RET 2 μg/ml, poly-EY4 substrate, 20 μM ATP, two hours at 30° C.
Summary of the method: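 Recombinant RET at 2 μg/ml in 20 mM MOPS/NaOH pH 7.0, 1 mM EDTA, 5% glycerol, 0.01% Brij35, 0.1% 2-mercaptoethanol, 1 mg/ml BSA; compounds 10 nM–30 μM final.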

T1 sequence (P07949 29-1114): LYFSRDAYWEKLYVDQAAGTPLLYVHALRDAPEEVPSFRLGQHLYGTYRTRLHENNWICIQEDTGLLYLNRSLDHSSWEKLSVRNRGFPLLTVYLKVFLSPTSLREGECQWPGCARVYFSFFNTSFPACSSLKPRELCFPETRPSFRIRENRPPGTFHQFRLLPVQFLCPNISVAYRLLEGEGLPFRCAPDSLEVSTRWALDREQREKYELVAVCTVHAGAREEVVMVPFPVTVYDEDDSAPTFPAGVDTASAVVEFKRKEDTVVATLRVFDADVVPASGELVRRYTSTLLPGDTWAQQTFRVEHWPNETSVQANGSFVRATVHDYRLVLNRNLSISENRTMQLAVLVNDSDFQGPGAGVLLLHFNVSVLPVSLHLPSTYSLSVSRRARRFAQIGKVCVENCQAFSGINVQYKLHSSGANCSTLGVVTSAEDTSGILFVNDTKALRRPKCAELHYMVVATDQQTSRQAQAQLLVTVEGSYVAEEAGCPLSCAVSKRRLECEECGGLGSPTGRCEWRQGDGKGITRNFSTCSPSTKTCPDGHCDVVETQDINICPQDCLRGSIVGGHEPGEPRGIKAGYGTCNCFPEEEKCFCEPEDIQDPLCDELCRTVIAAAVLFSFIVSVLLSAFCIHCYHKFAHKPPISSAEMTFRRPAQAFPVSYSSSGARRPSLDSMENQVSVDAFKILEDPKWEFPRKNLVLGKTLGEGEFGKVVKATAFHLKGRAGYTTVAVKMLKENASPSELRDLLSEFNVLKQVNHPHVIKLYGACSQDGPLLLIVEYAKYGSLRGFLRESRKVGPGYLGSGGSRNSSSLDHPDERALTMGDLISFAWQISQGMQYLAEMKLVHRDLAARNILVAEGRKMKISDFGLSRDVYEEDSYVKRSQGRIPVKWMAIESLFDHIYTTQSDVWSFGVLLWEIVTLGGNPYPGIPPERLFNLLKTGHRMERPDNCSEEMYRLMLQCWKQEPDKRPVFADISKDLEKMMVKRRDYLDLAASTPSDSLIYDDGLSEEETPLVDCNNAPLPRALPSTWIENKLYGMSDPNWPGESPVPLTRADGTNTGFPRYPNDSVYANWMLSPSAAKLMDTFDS

| SMILES | IC50 |
| --- | --- |
| CN(C(=O)OC(C)(C)C)C1CCN(S(=O)(=O)c2ccc3[nH]c(=O)c4[nH]cc(C(=O)O)c4c3c2)C1 (stereo not drawn) [Compound 170, 8-[3-(tert-Butoxycarbonyl-methyl-amino)-pyrrolidine-1-sulfonyl]-4-oxo-4,5-dihydro-3H-pyrrolo[2,3-c]quinoline-1-carboxylic acid] | 10 to 100 µM |
| O=C(O)c1c[nH]c2c(=O)[nH]c3ccccc3c12 [Compound 75, 4-oxo-4,5-dihydro-3H-pyrrolo[2,3-c]quinoline-1-carboxylic acid] | 10 to 100 µM |
| CCOC(=O)c1c[nH]c2c(=O)[nH]c3ccc(-c4cccc(NC(=O)OC(C)(C)C)c4)cc3c12 [Compound 233, 8-(3-tert-Butoxycarbonylaminophenyl)-4-oxo-4,5-dihydro-3H-pyrrolo[2,3-c]quinoline-1-ethyl carboxylate] | 1 to 10 µM |
| CCOC(=O)c1c[nH]c2c(=O)[nH]c3ccc(S(=O)(=O)Nc4ccccc4C)cc3c12 [Compound 4, 4-Oxo-8-o-tolylsulfamoyl-4,5-dihydro-3H-pyrrolo[2,3-c]quinoline-1-ethyl carboxylate] | < 0.1 µM |
| CCOC(=O)c1c[nH]c2c(=O)[nH]c3ccc(-c4ccccc4NC(=O)OC(C)(C)C)cc3c12 [Compound 230, 8-(2-tert-Butoxycarbonylaminophenyl)-4-oxo-4,5-dihydro-3H-pyrrolo[2,3-c]quinoline-1-ethyl carboxylate] | 10 to 100 µM |
| C#CCN(CCN(C(=O)OC(C)(C)C)C(C)C)S(=O)(=O)c1ccc2[nH]c(=O)c3[nH]cc(C(=O)OCCC)c3c2c1 [Compound 159, 8-{[2-(tert-Butoxycarbonyl-isopropyl-amino)-ethyl]-prop-2-ynyl-sulfamoyl}-4-oxo-4,5-dihydro-3H-pyrrolo[2,3-c]quinoline-1-propyl carboxylate] | 1 to 10 µM |
| CCCOC(=O)c1c[nH]c2c(=O)[nH]c3ccc(S(=O)(=O)N(CCNC(C)C)C4CC4)cc3c12 [Compound 142, 8-[Cyclopropyl-(2-isopropylamino-ethyl)-sulfamoyl]-4-oxo-4,5-dihydro-3H-pyrrolo[2,3-c]quinoline-1-propyl carboxylate hydrochloride] | 0.1 to 1 µM |
| CCOC(=O)c1c[nH]c2c(=O)[nH]c3ccc(S(=O)(=O)Nc4cccc(O)c4)cc3c12 [Compound 15, 8-(3-Hydroxy-phenylsulfamoyl)-4-oxo-4,5-dihydro-3H-pyrrolo[2,3-c]quinoline-1-ethyl carboxylate] | 0.1 to 1 µM |
| CCOC(=O)c1c[nH]c2c(=O)[nH]c3ccc(S(=O)(=O)N4CCc5ccccc54)cc3c12 [Compound 21, 8-(2,3-Dihydro-indole-1-sulfonyl)-4-oxo-4,5-dihydro-3H-pyrrolo[2,3-c]quinoline-1-ethyl carboxylate] | 0.1 to 1 µM |
| CCOC(=O)c1c[nH]c2c(=O)[nH]c3ccc(S(=O)(=O)Nc4ccc(N)cc4)cc3c12 [Compound 20, 8-(4-Aminophenylsulfamoyl)-4-oxo-4,5-dihydro-3H-pyrrolo[2,3-c]quinoline-1-ethyl carboxylate] | < 0.1 µM |
| CCOC(=O)c1c[nH]c2c(=O)[nH]c3ccc(S(=O)(=O)N4CCOCC4)cc3c12 [Compound 28, 8-(Morpholine-4-sulfonyl)-4-oxo-4,5-dihydro-3H-pyrrolo[2,3-c]quinoline-1-ethyl carboxylate] | 0.1 to 1 µM |
| CCCOC(=O)c1c[nH]c2c(=O)[nH]c3ccc(S(=O)(=O)N4CC[C@H](NC(=O)OC(C)(C)C)C4)cc3c12 [Compound 164, (S)-8-(3-tert-Butoxycarbonylamino-pyrrolidine-1-sulfonyl)-4-oxo-4,5-dihydro-3H-pyrrolo[2,3-c]quinoline-1-propyl carboxylate] | 1 to 10 µM |
| CCOC(=O)c1c[nH]c2c(=O)[nH]c3ccc(S(=O)(=O)N(C)CCc4ccccc4)cc3c12 [Compound 25, 8-(Methyl-phenethyl-sulfamoyl)-4-oxo-4,5-dihydro-3H-pyrrolo[2,3-c]quinoline-1-ethyl carboxylate] | 1 to 10 µM |
| CCOC(=O)c1c[nH]c2c(=O)[nH]c3ccc(S(=O)(=O)Nc4ccc(OC)cc4)cc3c12 [Compound 9, 8-(4-Methoxy-phenylsulfamoyl)-4-oxo-4,5-dihydro-3H-pyrrolo[2,3-c]quinoline-1-ethyl carboxylate] | 0.1 to 1 µM |
| CCOC(=O)c1c[nH]c2c(=O)[nH]c3ccc(NS(=O)(=O)c4cccc(C)c4)cc3c12 [Compound 48, 4-Oxo-8-(3-toluenesulfonylamino)-4,5-dihydro-3H-pyrrolo[2,3-c]quinoline-1-ethyl carboxylate] | 10 to 100 µM |

Results, then the molecule that gave them:

| IC50 | SMILES |
| --- | --- |
| 1 to 10 µM | O=C(OC1CCCC1)c1c[nH]c2c(=O)[nH]c3ccc(I)cc3c12 [Compound 211, 8-Iodo-4-oxo-4,5-dihydro-3H-pyrrolo[2,3-c]quinoline-1-cyclopentyl carboxylate] |
| 1 to 10 µM | COC(=O)c1c[nH]c2c(=O)[nH]c3ccc(S(=O)(=O)NC4CCCC4)cc3c12 [Compound 92, 8-Cyclopentylsulfamoyl-4-oxo-4,5-dihydro-3H-pyrrolo[2,3-c]quinoline-1-methyl carboxylate] |
| 1 to 10 µM | CCOC(=O)c1c[nH]c2c(=O)[nH]c3ccc(-c4ccnc(N5CCN(c6ccccn6)CC5)n4)cc3c12 [Compound 265, 4-Oxo-8-[2-(4-pyridin-2-yl-piperazin-1-yl)-pyrimidin-4-yl]-4,5-dihydro-3H-pyrrolo[2,3-c]quinoline-1-ethyl carboxylate] |
| 0.1 to 1 µM | CCOC(=O)c1c[nH]c2c(=O)[nH]c3ccc(Sc4ccccc4)cc3c12 [Compound 220, 4-Oxo-8-phenylsulfanyl-4,5-dihydro-3H-pyrrolo[2,3-c]quinoline-1-ethyl carboxylate] |
| 0.1 to 1 µM | CCOC(=O)c1c[nH]c2c(=O)[nH]c3ccc(-c4ccccc4NS(C)(=O)=O)cc3c12 [Compound 232, 8-(2-Methanesulfonylaminophenyl)-4-oxo-4,5-dihydro-3-pyrrolo[2,3-c]quinoline-1-ethyl carboxylate] |
| 1 to 10 µM | CCOC(=O)c1c[nH]c2c(=O)[nH]c3ccc(-c4ccc(OC)nc4)cc3c12 [Compound 260, 8-(6-Methoxy-pyridin-3-yl)-4-oxo-4,5-dihydro-3H-pyrrolo[2,3-c]quinoline-1-ethyl carboxylate] |
| 1 to 10 µM | CCOC(=O)c1c[nH]c2c(=O)[nH]c3ccc(-c4cccc5cccnc45)cc3c12 [Compound 250, 4-Oxo-8-quinolin-8-yl-4,5-dihydro-3H-pyrrolo[2,3-c]quinoline-1-ethyl carboxylate] |
| 1 to 10 µM | CCOC(=O)c1c[nH]c2c(=O)[nH]c3cc(F)ccc3c12 [Compound 215, 7-Fluoro-4-oxo-4,5-dihydro-3H-pyrrolo[2,3-c]quinoline-1-ethyl carboxylate] |
| 0.1 to 1 µM | CCOC(=O)c1c[nH]c2c(=O)[nH]c3ccc(-c4ccccc4N)cc3c12 [Compound 231, 8-(2-Aminophenyl)-4-oxo-4,5-dihydro-3H-pyrrolo[2,3-c]quinoline-1-ethyl carboxylate] |
| 0.1 to 1 µM | CCCOC(=O)c1c[nH]c2c(=O)[nH]c3ccc(S(=O)(=O)N(C)CC#N)cc3c12 [Compound 128, 8-(Cyanomethyl-methyl-sulfamoyl)-4-oxo-4,5-dihydro-3H-pyrrolo[2,3-c]quinoline-1-propyl carboxylate] |
| 0.1 to 1 µM | CCCOC(=O)c1c[nH]c2c(=O)[nH]c3ccc(S(=O)(=O)N(C)CCSC)cc3c12 [Compound 135, 8-[Methyl-(2-methylsulfanyl-ethyl)-sulfamoyl]-4-oxo-4,5-dihydro-3H-pyrrolo[2,3-c]quinoline-1-propyl carboxylate] |
| 10 to 100 µM | CN(C)CCCNC(=O)c1c[nH]c2c(=O)[nH]c3ccccc3c12 [Compound 80, N-(3-Dimethylamino-propyl)-4-oxo-4,5-dihydro-3H-pyrrolo[2,3-c]quinoline-1-carboxamide] |
| 0.1 to 1 µM | CCCOC(=O)c1c[nH]c2c(=O)[nH]c3ccc(S(=O)(=O)N4CC[C@H](N(C)C)C4)cc3c12 [Compound 171] |
| 1 to 10 µM | CC(C)COC(=O)c1c[nH]c2c(=O)[nH]c3ccc(-c4cccc(S(C)(=O)=O)c4)cc3c12 [Compound 255, 8-(3-Methanesulfonyl-phenyl)-4-oxo-4,5-dihydro-3H-pyrrolo[2,3-c]quinoline-1-isobutyl carboxylate] |
| 10 to 100 µM | O=C(Nc1ccccc1)c1c[nH]c2c(=O)[nH]c3ccccc3c12 [Compound 87, N-(Phenyl)-4-oxo-4,5-dihydro-3H-pyrrolo[2,3-c]quinoline-1-carboxamide] |
| 10 to 100 µM | CNC(=O)c1c[nH]c2c(=O)[nH]c3ccccc3c12 [Compound 88, N-(Methyl)-4-oxo-4,5-dihydro-3H-pyrrolo[2,3-c]quinoline-1-carboxamide] |
| 0.1 to 1 µM | CCCOC(=O)c1c[nH]c2c(=O)[nH]c3ccc(S(=O)(=O)N(C)CCN(CC)CC)cc3c12 [Compound 138, 8-[(2-Diethylamino-ethyl)-methyl-sulfamoyl]-4-oxo-4,5-dihydro-3H-pyrrolo[2,3-c]quinoline-1-propyl carboxylate] |
| 0.1 to 1 µM | CCCOC(=O)c1c[nH]c2c(=O)[nH]c3ccc(S(=O)(=O)N(C)C4CCSCC4)cc3c12 [Compound 131, 8-[Methyl-(tetrahydro-thiopyran-4-yl)-sulfamoyl]-4-oxo-4,5-dihydro-3H-pyrrolo[2,3-c]quinoline-1-propyl carboxylate] |
| 10 to 100 µM | CCOC(=O)c1c[nH]c2c(=O)[nH]c3ccc(-c4csc(Nc5c(Cl)cccc5Cl)n4)cc3c12 [Compound 274, 8-[2-(2,6-Dichlorophenylamino)-thiazol-4-yl]-4-oxo-4,5-dihydro-3H-pyrrolo[2,3-c]quinoline-1-ethyl carboxylate] |
| 0.1 to 1 µM | CCCOC(=O)c1c[nH]c2c(=O)[nH]c3ccc(S(=O)(=O)N(Cc4c[nH]cn4)C4CC4)cc3c12 [Compound 143, 8-[Cyclopropyl-(1H-imidazol-4-ylmethyl)-sulfamoyl]-4-oxo-4,5-dihydro-3H-pyrrolo[2,3-c]quinoline-1-propyl carboxylate hydrochloride] |
| 0.1 to 1 µM | CCOC(=O)c1c[nH]c2c(=O)[nH]c3ccc(-c4ccc5c(c4)OCCO5)cc3c12 [Compound 248, 8-(2,3-Dihydro-benzo[1,4]dioxin-6-yl)-4-oxo-4,5-dihydro-3H-pyrrolo[2,3-c]quinoline-1-ethyl carboxylate] |
